From ChEMBL document CHEMBL1201862, “PubChem BioAssay data set” (2004)
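1) Cells in 96-well plates. 2) Compound, 48 h, 5 concentrations. 3) Linear interpolation between surrounding doses. 4) Unreached endpoint = highest concentration. GI50 marks 50% less growth.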 The source made the active and inactive calls. Cut-off read from the data, not from the text of the source: active = GI50 up to about 1.1 µM and inactive = higher.

Columns and labels:
Test in all cases: DTP human tumour cell line panel, 48 h
COLO 205 = test system: COLO 205
Malme-3M = test system: Malme-3M
SNB-75 = test system: SNB-75
UO-31 = test system: UO-31
NCI-H460 = test system: NCI-H460
HL-60 = test system: HL-60
ACHN = test system: ACHN
M14 = test system: M14
OVCAR-8 = test system: OVCAR-8
HCT-15 = test system: HCT-15
SNB-19 = test system: SNB-19
HCC 2998 = test system: HCC 2998
SK-MEL-5 = test system: SK-MEL-5
SK-MEL-2 = test system: SK-MEL-2
T47D = test system: T47D
OVCAR-4 = test system: OVCAR-4
HT-29 = test system: HT-29
EKVX = test system: EKVX
SK-OV-3 = test system: SK-OV-3
LOX IMVI = test system: LOX IMVI

Structure (SMILES)	GI50 (COLO 205)	GI50 (Malme-3M)	GI50 (SNB-75)	GI50 (UO-31)	GI50 (NCI-H460)	GI50 (HL-60)	GI50 (ACHN)	GI50 (M14)	GI50 (OVCAR-8)	GI50 (HCT-15) [µM]	GI50 (SNB-19)	GI50 (HCC 2998)	GI50 (SK-MEL-5)	GI50 (SK-MEL-2)	GI50 (T47D)	GI50 (OVCAR-4)	GI50 (HT-29)	GI50 (EKVX)	GI50 (SK-OV-3)	GI50 (LOX IMVI)
CC1=NN(C(=O)c2ccccc2O)C(=O)/C1=C/c1ccccc1O	20.7 µM (inactive)	0.766 µM (active)	0.0968 µM (active)	0.0634 µM (active)	0.209 µM (active)	0.409 µM (active)	0.0695 µM (active)	1.55 µM (inactive)	0.557 µM (active)	0.292	0.124 µM (active)	3.21 µM (inactive)	1.06 µM (active)	6.4 µM (inactive)	0.225 µM (active)	1.08 µM (active)	8.45 µM (inactive)	1.78 µM (inactive)	0.0815 µM (active)	0.568 µM (active)
O=C(NNCc1ccco1)c1cc2ccccc2[nH]1	> 100 µM (inactive)	> 100 µM (inactive)	47.9 µM (inactive)	> 74.6 µM (inactive)	> 71.4 µM (inactive)	> 29.1 µM (inactive)	> 54.7 µM (inactive)	> 94 µM (inactive)	> 53.1 µM (inactive)	> 87.5	> 80.2 µM (inactive)	> 36.9 µM (inactive)	> 100 µM (inactive)	> 100 µM (inactive)	13.5 µM (inactive)	> 39.1 µM (inactive)	> 86.9 µM (inactive)	61.5 µM (inactive)	> 56 µM (inactive)	> 100 µM (inactive)
COC(=O)c1ccccc1C1CN=NC12Cc1c(C)cc(C)cc1C2=O (stereo not given)	> 100 µM (inactive)	> 100 µM (inactive)	58.2 µM (inactive)	> 100 µM (inactive)	> 100 µM (inactive)	> 100 µM (inactive)	> 100 µM (inactive)	> 100 µM (inactive)	> 100 µM (inactive)	> 100	> 100 µM (inactive)	> 100 µM (inactive)	> 100 µM (inactive)	> 100 µM (inactive)	> 100 µM (inactive)	> 100 µM (inactive)	> 100 µM (inactive)	> 100 µM (inactive)	> 100 µM (inactive)	> 100 µM (inactive)
COc1ccc2c(CCNS(=O)(=O)c3ccccc3)c(C(C)=O)[nH]c2c1	> 73.6 µM (inactive)	> 100 µM (inactive)	52.8 µM (inactive)	9.51 µM (inactive)	> 100 µM (inactive)	> 75.3 µM (inactive)	3.15 µM (inactive)	> 64.4 µM (inactive)	> 69.3 µM (inactive)	> 75.2	66.7 µM (inactive)	> 100 µM (inactive)	> 42.8 µM (inactive)	> 100 µM (inactive)	> 52.2 µM (inactive)	51.6 µM (inactive)	> 46.8 µM (inactive)	> 100 µM (inactive)	> 80.9 µM (inactive)	> 68.2 µM (inactive)
COC(=O)c1c(O)ccc2c1c1c(n2Cc2cc(OC)cc(OC)c2)C(=O)c2ccccc2C1=O	1.86 µM (inactive)	6.34 µM (inactive)	14.1 µM (inactive)	4.56 µM (inactive)	3.75 µM (inactive)	7.5 µM (inactive)	5.04 µM (inactive)	8.13 µM (inactive)	3.72 µM (inactive)	3.93	24.4 µM (inactive)	2.72 µM (inactive)	8.83 µM (inactive)	10.9 µM (inactive)	10.9 µM (inactive)	9.93 µM (inactive)	2.44 µM (inactive)	11.6 µM (inactive)	6.52 µM (inactive)	8.67 µM (inactive)
CCOC(=O)c1c(Br)c(-c2ccc([N+](=O)[O-])cc2)c(Br)n1C	> 10 µM (inactive)	> 10 µM (inactive)	2.49 µM (inactive)	9.16 µM (inactive)	> 10 µM (inactive)	> 10 µM (inactive)	> 10 µM (inactive)	> 10 µM (inactive)	> 10 µM (inactive)	> 10	> 10 µM (inactive)	> 10 µM (inactive)	> 10 µM (inactive)	> 10 µM (inactive)	> 10 µM (inactive)	> 10 µM (inactive)	> 10 µM (inactive)	9.55 µM (inactive)	> 10 µM (inactive)	> 10 µM (inactive)
O=[N+]([O-])c1ccc(Cl)c(/C=N/C23CC4CC(CC(C4)C2)C3)c1	> 10 µM (inactive)	> 10 µM (inactive)	> 10 µM (inactive)	> 10 µM (inactive)	> 10 µM (inactive)	2.05 µM (inactive)	> 10 µM (inactive)	> 6.22 µM (inactive)	4 µM (inactive)	> 6.46	> 10 µM (inactive)	> 10 µM (inactive)	3.5 µM (inactive)	> 10 µM (inactive)	> 10 µM (inactive)	> 10 µM (inactive)	> 10 µM (inactive)	> 10 µM (inactive)	> 10 µM (inactive)	> 9.12 µM (inactive)
